Results as given in US20250013155A1, “MICROFLUIDIC POROUS MEMBRANE ELECTRICAL CELL-SUBSTRATE IMPEDANCE SENSING” (THE GOVERNING COUNCIL OF THE UNIVERSITY OF TORONTO, priority 2023, published 2025).

Columns and labels:
[1] = system: confluent monolayer of HUVECs; test: PM-ECIS resistance (4 kHz) response to EGTA and thrombin barrier disruption, 250/500/750 μm electrodes; format: cell-based, human; conditions: all electrode sizes
Excerpt: The PM-ECIS devices were connected to a 24-channel multiplexer, which in turn connected to a phase-sensitive lock-in amplifier (LIA) and computer (FIG. 9D), The overall circuit for the ECIS system follows the set up described by Giaever and Keese. The LIA acts to both generate an alternating current signal, and receive signal measured across the cell layer. An alternating current signal of 1 V rms was generated at a specified frequency, connected to a 1 MΩ resistor to provide a 1 μA current. Cell-free devices were filled with culture medium and measurements taken over at least 12 hours to establish baseline impedance. The voltage drop across the device containing cells grown on electrodes was detected and measured by the LIA, which allows for small AC signals to be resolved in high noise systems. A cell-free baseline was established beforehand using cell-free devices filled with culture medium and impedance measurements taken over the course of at least 12 hours prior to cell seeding. LIA outputs including voltage drop and phase angle were used to calculate and plot impedance and resistance values.
Cells were incubated in 5 mM EGTA (Sigma-Aldrich, E3889) diluted in Endothelial Growth Medium at 37° C. and 5% CO2 for 2 hours, with ECIS measurements taken every 15 min. After 2 hours, EGTA was removed and replaced with fresh growth medium. For transient disruption of the endothelial barrier, cells were stimulated with 1 U/mL of thrombin from bovine plasma (Sigma-Aldrich, T6634) diluted in Endothelial Growth Medium at 37° C. and 5% CO2 for 2 hours, with measurements taken every 5 min.
To assess the effect of electrode size in PM-ECIS response to barrier disruption, a confluent monolayer of HUVECs was subjected to 2-hour treatment with EGTA. EGTA disrupts cell barriers by chelating Ca2+ ions to destabilize tight junctions. […]

[2] = system: HUVEC monolayers; test: PM-ECIS resistance of HUVEC monolayers on 6-well inserts after thrombin barrier disruption; format: cell-based, human; conditions: 1 U/mL thrombin in fresh media, HUVECs, 6-well PM-ECIS
Description: A lock-in amplifier (LIA) (SR850, Stanford Research Systems) was used to simultaneously generate AC current and read impedance data from the devices. An Arduino-operated multiplexer was used to switch between devices. Using a 1 V rms input voltage, in series with a 1 MΩ resistor, electrodes (typ. 500 μm dia.) were stimulated at frequencies of 400, 4000 and 40000 Hz, and any voltage drops (at the locked frequencies) across the electrodes were sampled with the LIA every 15 or 60 mins. Prior to use, the devices without cells were left in media for at least 12 hours to record a stable cell-free impedance baseline for each electrode at each frequency.
Cell barrier resistance (Rb), capacitance (Cm), and basal barrier beneath the cells (a) were modeled and calculated using ECIS Core software (Applied Biophysics, v1.2.215.0 PC) using the raw impedance values taken at 400, 4000, and 40000 Hz.

Compound	time to drop in resistance after treatment ([1]; 5 mM EGTA, 4 kHz)	change in 4 kHz PM-ECIS resistance after addition of thrombin [2]	change in resistance after thrombin treatment ([1]; 1 U/mL thrombin, 4 kHz)	time for resistances to return to or close to pre-treatment values ([1]; 1 U/mL thrombin)
O=C(O)CN(CCOCCOCCN(CC(=O)O)CC(=O)O)CC(=O)O [EGTA, ethylene glycol-bis(β-aminoethyl ether)-N,N,N′,N′-tetraacetic acid]	≤ 15 min	–	–	–
thrombin: thrombin from bovine plasma (Sigma), used to disrupt cell-cell junctions	–	acute resistance drop	immediate drop in resistance	≤ 120 min
